From PubChem BioAssay (NCI)
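Cells were grown in 96-well plates and exposed to each compound for 48 hours at five concentrations; endpoints were interpolated linearly between bracketing concentrations, or set to the highest concentration if not reached. GI50: concentration for 50% inhibition of growth. At the TGI there is no net growth.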

How the values were obtained:
Assay in all cases: NCI tumour cell line growth inhibition, 48 h
M14 melanoma = system: M14 melanoma
CCRF-CEM leukemia = system: CCRF-CEM leukemia
HOP-92 NSCLC = system: HOP-92 NSCLC
TK-10 renal = system: TK-10 renal
UO-31 renal = system: UO-31 renal
HOP-62 NSCLC = system: HOP-62 NSCLC
PC-3 prostate = system: PC-3 prostate
HS 578T breast = system: HS 578T breast
RXF 393 renal = system: RXF 393 renal
OVCAR-8 ovarian = system: OVCAR-8 ovarian
SN12C renal = system: SN12C renal
EKVX NSCLC = system: EKVX NSCLC
SF-539 CNS = system: SF-539 CNS
HL-60(TB) leukemia = system: HL-60(TB) leukemia
MALME-3M melanoma = system: MALME-3M melanoma
SW-620 colon = system: SW-620 colon
HCT-15 colon = system: HCT-15 colon
MDA-MB-231 breast = system: MDA-MB-231 breast
NCI/ADR-RES ovarian = system: NCI/ADR-RES ovarian
ACHN renal = system: ACHN renal
CAKI-1 renal = system: CAKI-1 renal
IGROV1 ovarian = system: IGROV1 ovarian
UACC-257 melanoma = system: UACC-257 melanoma
HCT-116 colon = system: HCT-116 colon
U251 CNS = system: U251 CNS
COLO 205 colon = system: COLO 205 colon
DU-145 prostate = system: DU-145 prostate
HCC-2998 colon = system: HCC-2998 colon
A498 renal = system: A498 renal
SF-268 CNS = system: SF-268 CNS
SNB-19 CNS = system: SNB-19 CNS
K-562 leukemia = system: K-562 leukemia
A549 NSCLC = system: A549 NSCLC
UACC-62 melanoma = system: UACC-62 melanoma
OVCAR-3 ovarian = system: OVCAR-3 ovarian
786-0 renal = system: 786-0 renal
SR leukemia = system: SR leukemia
LOX IMVI melanoma = system: LOX IMVI melanoma
NCI-H522 lung = system: NCI-H522 lung
RPMI-8226 leukemia = system: RPMI-8226 leukemia
KM12 colon = system: KM12 colon
NCI-H23 lung = system: NCI-H23 lung
OVCAR-5 ovarian = system: OVCAR-5 ovarian
MOLT-4 leukemia = system: MOLT-4 leukemia
HT29 colon = system: HT29 colon
SK-OV-3 ovarian = system: SK-OV-3 ovarian
NCI-H226 lung = system: NCI-H226 lung
MDA-MB-435 = system: MDA-MB-435
MDA-N = system: MDA-N
NCI-H460 lung = system: NCI-H460 lung
BT-549 breast = system: BT-549 breast
SF-295 CNS = system: SF-295 CNS
SK-MEL-28 melanoma = system: SK-MEL-28 melanoma
T-47D breast = system: T-47D breast
SNB-75 CNS = system: SNB-75 CNS
SK-MEL-5 melanoma = system: SK-MEL-5 melanoma
MCF7 breast = system: MCF7 breast
OVCAR-4 ovarian = system: OVCAR-4 ovarian
SK-MEL-2 melanoma = system: SK-MEL-2 melanoma

## Cc1cn(C2CC(/[N+]([O-])=N\Nc3ccc([N+](=O)[O-])cc3)C(CO)O2)c(=O)[nH]c1=O (stereo not drawn)
M14 melanoma
  TGI: > 100 µM
CCRF-CEM leukemia
  TGI: > 100 µM
HOP-92 NSCLC
  TGI: > 100 µM
TK-10 renal
  TGI: > 100 µM
UO-31 renal
  TGI: > 100 µM
HOP-62 NSCLC
  TGI: > 100 µM
PC-3 prostate
  TGI: > 100 µM
HS 578T breast
  TGI: > 100 µM
RXF 393 renal
  TGI: > 100 µM
OVCAR-8 ovarian
  TGI: > 100 µM
SN12C renal
  TGI: > 100 µM
EKVX NSCLC
  TGI: > 100 µM
SF-539 CNS
  TGI: > 100 µM
HL-60(TB) leukemia
  TGI: > 100 µM
MALME-3M melanoma
  TGI: > 100 µM
SW-620 colon
  TGI: > 100 µM
HCT-15 colon
  TGI: > 100 µM
MDA-MB-231 breast
  TGI: > 100 µM
NCI/ADR-RES ovarian
  TGI: > 100 µM
ACHN renal
  TGI: > 100 µM
CAKI-1 renal
  TGI: > 100 µM
IGROV1 ovarian
  TGI: > 100 µM
UACC-257 melanoma
  TGI: > 100 µM
HCT-116 colon
  TGI: > 100 µM
U251 CNS
  TGI: > 100 µM
COLO 205 colon
  TGI: > 100 µM
DU-145 prostate
  TGI: > 100 µM
HCC-2998 colon
  TGI: > 100 µM
A498 renal
  TGI: > 100 µM
SF-268 CNS
  TGI: > 100 µM
SNB-19 CNS
  TGI: > 100 µM
K-562 leukemia
  TGI: > 100 µM
A549 NSCLC
  TGI: > 100 µM
UACC-62 melanoma
  TGI: > 100 µM
OVCAR-3 ovarian
  TGI: > 100 µM
786-0 renal
  TGI: > 100 µM
SR leukemia
  TGI: > 100 µM
LOX IMVI melanoma
  TGI: > 100 µM
NCI-H522 lung
  TGI: > 100 µM
RPMI-8226 leukemia
  TGI: > 100 µM
KM12 colon
  TGI: > 100 µM
NCI-H23 lung
  TGI: > 100 µM
OVCAR-5 ovarian
  TGI: > 100 µM
MOLT-4 leukemia
  TGI: > 100 µM
HT29 colon
  TGI: > 100 µM
SK-OV-3 ovarian
  TGI: > 100 µM
NCI-H226 lung
  TGI: > 100 µM
MDA-MB-435
  TGI: > 100 µM
MDA-N
  TGI: > 100 µM
NCI-H460 lung
  TGI: > 100 µM
BT-549 breast
  TGI: > 100 µM
SF-295 CNS
  TGI: > 100 µM
SK-MEL-28 melanoma
  TGI: > 100 µM

## NC(CSC(c1ccccc1)(c1ccccc1)c1ccc(Br)cc1)C(=O)O (stereo not drawn)
M14 melanoma
  GI50: 0.0318 µM
  TGI: 0.146 µM
CCRF-CEM leukemia
  GI50: 0.0941 µM
HOP-92 NSCLC
  GI50: 2.47 µM
  TGI: 39.6 µM
TK-10 renal
  GI50: 14 µM
  TGI: > 100 µM
UO-31 renal
  GI50: 12.3 µM
  TGI: > 100 µM
HOP-62 NSCLC
  GI50: 0.457 µM
  TGI: 21.8 µM
T-47D breast
  GI50: 0.345 µM
  TGI: > 100 µM
PC-3 prostate
  GI50: 0.17 µM
  TGI: > 77.7 µM
SNB-75 CNS
  GI50: 0.729 µM
  TGI: > 50.8 µM
HS 578T breast
  GI50: 0.0621 µM
  TGI: 0.219 µM
RXF 393 renal
  GI50: 0.103 µM
  TGI: > 35.6 µM
OVCAR-8 ovarian
  GI50: 0.321 µM
  TGI: > 51.7 µM
SN12C renal
  GI50: 0.3 µM
  TGI: 49.8 µM
EKVX NSCLC
  GI50: 0.707 µM
  TGI: > 100 µM
SK-MEL-5 melanoma
  GI50: 0.0721 µM
  TGI: 12.2 µM
SF-539 CNS
  GI50: 0.11 µM
  TGI: 13.5 µM
HL-60(TB) leukemia
  GI50: 0.412 µM
  TGI: 75.3 µM
MALME-3M melanoma
  TGI: > 88.6 µM
SW-620 colon
  GI50: 0.1 µM
  TGI: 27.7 µM
HCT-15 colon
  GI50: 0.258 µM
  TGI: > 82 µM
MDA-MB-231 breast
  GI50: 0.133 µM
  TGI: 3.92 µM
MCF7 breast
  GI50: 0.0573 µM
  TGI: > 51.2 µM
NCI/ADR-RES ovarian
  GI50: 0.976 µM
  TGI: 4.54 µM
OVCAR-4 ovarian
  GI50: 19.9 µM
  TGI: > 100 µM
ACHN renal
  GI50: 11.6 µM
  TGI: > 100 µM
SK-MEL-2 melanoma
  GI50: 14.5 µM
  TGI: > 78.2 µM
CAKI-1 renal
  GI50: 0.499 µM
  TGI: > 100 µM
IGROV1 ovarian
  GI50: 0.293 µM
  TGI: 40.8 µM
UACC-257 melanoma
  GI50: 7.44 µM
  TGI: > 72.8 µM
HCT-116 colon
  GI50: 0.0469 µM
  TGI: 5.71 µM
U251 CNS
  GI50: 0.0798 µM
  TGI: 25.5 µM
COLO 205 colon
  GI50: 0.241 µM
  TGI: 15.2 µM
DU-145 prostate
  GI50: 0.236 µM
  TGI: 0.548 µM
HCC-2998 colon
  GI50: 0.174 µM
  TGI: 1.5 µM
A498 renal
  GI50: 0.259 µM
  TGI: 32.5 µM
SF-268 CNS
  GI50: 0.151 µM
  TGI: 22.4 µM
SNB-19 CNS
  GI50: 0.296 µM
  TGI: > 76.6 µM
K-562 leukemia
  GI50: 0.311 µM
  TGI: 20.6 µM
A549 NSCLC
  GI50: 0.375 µM
  TGI: > 82.3 µM
UACC-62 melanoma
  GI50: 0.17 µM
  TGI: 17.4 µM
OVCAR-3 ovarian
  GI50: 0.0942 µM
  TGI: 0.412 µM
786-0 renal
  GI50: 0.119 µM
  TGI: 1.58 µM
SR leukemia
  GI50: 1.33 µM
  TGI: > 38.7 µM
LOX IMVI melanoma
  GI50: 0.659 µM
  TGI: 19.8 µM
NCI-H522 lung
  GI50: 0.12 µM
  TGI: 22.3 µM
RPMI-8226 leukemia
  GI50: 0.093 µM
  TGI: 22.6 µM
KM12 colon
  GI50: 0.212 µM
  TGI: 12.7 µM
NCI-H23 lung
  GI50: 0.438 µM
  TGI: 66.7 µM
OVCAR-5 ovarian
  GI50: 5.13 µM
  TGI: > 100 µM
MOLT-4 leukemia
  GI50: 0.651 µM
  TGI: > 82.1 µM
HT29 colon
  GI50: 0.399 µM
  TGI: > 54.9 µM
SK-OV-3 ovarian
  GI50: 0.162 µM
  TGI: > 72.7 µM
NCI-H226 lung
  GI50: 11.3 µM
  TGI: 33.4 µM
MDA-MB-435
  GI50: 0.0402 µM
  TGI: 0.199 µM
NCI-H460 lung
  GI50: 0.175 µM
  TGI: 18.1 µM
BT-549 breast
  GI50: 0.971 µM
  TGI: > 57 µM
SF-295 CNS
  GI50: 0.0764 µM
  TGI: > 100 µM
SK-MEL-28 melanoma
  GI50: 0.366 µM
  TGI: 31.7 µM

## C[C@H](N)C(=O)Nc1ccc(-c2nc3ccccc3s2)cc1Cl
M14 melanoma
  TGI: 19 µM
CCRF-CEM leukemia
  TGI: 29.3 µM
HOP-92 NSCLC
  TGI: > 100 µM
TK-10 renal
  TGI: 14.7 µM
UO-31 renal
  TGI: 22.9 µM
HOP-62 NSCLC
  TGI: 26 µM
PC-3 prostate
  TGI: 27.3 µM
SNB-75 CNS
  TGI: 34.8 µM
HS 578T breast
  TGI: 49.7 µM
RXF 393 renal
  TGI: 30.2 µM
OVCAR-8 ovarian
  TGI: > 100 µM
SN12C renal
  TGI: 30 µM
EKVX NSCLC
  TGI: 26.7 µM
SK-MEL-5 melanoma
  TGI: 29.9 µM
MALME-3M melanoma
  TGI: 41.4 µM
SW-620 colon
  TGI: 29.4 µM
HCT-15 colon
  TGI: 62.4 µM
NCI/ADR-RES ovarian
  TGI: > 100 µM
ACHN renal
  TGI: 29 µM
SK-MEL-2 melanoma
  TGI: 30.5 µM
CAKI-1 renal
  TGI: 23.2 µM
IGROV1 ovarian
  TGI: > 100 µM
UACC-257 melanoma
  TGI: 34.4 µM
HCT-116 colon
  TGI: 24.5 µM
U251 CNS
  TGI: 29.1 µM
COLO 205 colon
  TGI: 26.4 µM
DU-145 prostate
  TGI: 32.1 µM
HCC-2998 colon
  TGI: 17.9 µM
SF-268 CNS
  TGI: 43.7 µM
SNB-19 CNS
  TGI: 30.4 µM
K-562 leukemia
  TGI: 36.8 µM
A549 NSCLC
  TGI: 27.6 µM
UACC-62 melanoma
  TGI: 31.1 µM
OVCAR-3 ovarian
  TGI: 19.2 µM
786-0 renal
  TGI: 25.7 µM
SR leukemia
  TGI: 13.9 µM
LOX IMVI melanoma
  TGI: > 100 µM
NCI-H522 lung
  TGI: 46 µM
KM12 colon
  TGI: 33.6 µM
NCI-H23 lung
  TGI: 39.2 µM
OVCAR-5 ovarian
  TGI: 14.9 µM
MOLT-4 leukemia
  TGI: 40 µM
HT29 colon
  TGI: 32.8 µM
SK-OV-3 ovarian
  TGI: 32.7 µM
NCI-H226 lung
  TGI: 11.2 µM
MDA-MB-435
  TGI: 28.7 µM
MDA-N
  TGI: 26.3 µM
NCI-H460 lung
  TGI: 26.2 µM
BT-549 breast
  TGI: 36 µM
SF-295 CNS
  TGI: 33.9 µM
SK-MEL-28 melanoma
  TGI: 27.7 µM
